The values below come from patent US5656603A (Loyola University of Chicago, priority 1995, dated 1997).

One may read the IC50 as the concentration needed to halve the response being measured. Read a low IC50 as greater potency. As usually defined, the Ki is the dissociation constant of the complex between target and ligand, obtained from inhibition or displacement.

This test concerns the target T1, purified bovine lung membrane-bound aminopeptidase P (Bos taurus, UniProt E1B735).
T1 construct: from tissue; host or cells: bovine lung
T1 sequence (E1B735 22-673): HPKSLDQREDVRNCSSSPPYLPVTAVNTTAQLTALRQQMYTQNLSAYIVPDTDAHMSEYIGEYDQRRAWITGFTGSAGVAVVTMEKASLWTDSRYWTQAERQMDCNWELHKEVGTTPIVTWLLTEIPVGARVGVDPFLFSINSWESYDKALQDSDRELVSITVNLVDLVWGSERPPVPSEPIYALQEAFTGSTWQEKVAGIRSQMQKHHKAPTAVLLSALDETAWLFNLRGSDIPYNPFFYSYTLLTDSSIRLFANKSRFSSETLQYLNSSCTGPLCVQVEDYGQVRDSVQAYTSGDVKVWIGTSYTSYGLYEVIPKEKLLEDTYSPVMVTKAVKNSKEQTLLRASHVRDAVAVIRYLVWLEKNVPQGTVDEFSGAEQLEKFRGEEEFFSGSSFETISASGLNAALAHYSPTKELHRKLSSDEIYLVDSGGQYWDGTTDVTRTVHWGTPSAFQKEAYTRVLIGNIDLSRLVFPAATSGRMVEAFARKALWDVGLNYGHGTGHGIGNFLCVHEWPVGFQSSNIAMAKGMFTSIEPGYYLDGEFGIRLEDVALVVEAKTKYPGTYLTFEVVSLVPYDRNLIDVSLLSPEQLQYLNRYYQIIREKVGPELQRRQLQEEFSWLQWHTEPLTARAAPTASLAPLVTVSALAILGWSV
The test can be described thus: Aminopeptidase P inhibition, release of arginine from Arg-Pro-Pro (fluorescent assay). The test is classed as biochemical. As for the experimental part: The IC50 of the compound of the present invention in relation to aminopeptidase P was also determined. […] The specificity of the compound of the present invention for other aminopeptidases was similarly determined as described in the Experimental Procedures herein. […] The following enzymes had IC50 values>800 μM: aminopeptidase A, angiotensin converting enzyme, dipeptidyl-peptidase I-like activity, bestatin-sensitive/amastatin-insensitive membrane dipeptidase (29), microsomal dipeptidase, endopeptidase 24.11, endopeptidase 24.15, and prolyl oligopeptidase.
Enzymes--Membrane-bound aminopeptidase P was purified to homogeneity from bovine lung (14) and from rat lung. Partially purified membrane-bound aminopeptidase P from human lung was obtained by treatment of lung microsomes with phosphatidylinositol-specific phospholipase C (B. thuringiensis) (ICN, Costa Mesa, Calif.) followed by centrifugation as described previously (14). Membrane dipeptidase was purified from rat lung microsomes (manuscript in preparation). Recombinant E. coli aminopeptidase P (22) and purified lamb kidney prolyl oligopeptidase (23) were generally supplied by Dr. Tadashi Yoshimoto (Nagasaki University). Purified porcine kidney prolidase and purified porcine kidney aminopeptidase M was obtained from Sigma (St. Louis, Mo.).
Enzyme Kinetics--Aminopeptidase P activity was determined by measuring the release of arginine from Arg-Pro-Pro by a fluorescent assay described previously (14). […] Each mixture was run in duplicate. Aliquots were removed from each incubation mixture at various times and assayed for the amount of arginine present to determine the reaction velocity. In general, reaction velocities were calculated from data representing less than 20% cleavage of substrate. Ki and Ki ' (=αKi) were determined from plots of 1/v versus concentration of inhibitor "i" (26) and S/v versus concentration of inhibitor "i" (27), respectively. These parameters were also determined from the slope replot and 1/v-intercept replot, respectively, of the 1/v versus 1/S plot (28). See e.g., FIG. 1B. The values from the two treatments of the data were averaged for each experiment. Experiments for each enzyme preparation were performed twice and the results averaged.

Under “bovine lung aminopeptidase P, cleavage of 0.5 μM Arg-Pro-Pro in 0.1M Hepes, pH 8.0 at 37° C.”, `C[C@H](NC(=O)[C@@H]1CCCN1C(=O)[C@@H]1CCCN1C(=O)[C@@H](O)[C@H](N)Cc1ccccc1)C(N)=O` [apstatin, N-[(2S, 3R)-3-amino-2-hydroxy-4-phenylbutanoyl]-L-prolyl-L-prolyl-Lalaninamide] had an IC50 of 9.4 µM. The type of inhibition result (bovine lung aminopeptidase P, slope and 1/v-axis intercept replots) was “linear mixed-type”. Under “bovine lung, purified membrane-bound form”, the “α (αKi = equilibrium constant for enzyme-inhibitor binding at infinite substrate concentration)” value came to 4.2. The compound further returned a Ki (bovine lung, purified membrane-bound form, substrate Arg-Pro-Pro, 0.1 M Hepes pH 8.0, 39° C.) of 7.8 µM.
